Values quoted from earlier work as cited in patent US20080260683A1, “Rodenticide” (priority 2004, published 2008).

Row | SMILES | solubility in water
1 | O=c1oc2ccccc2c(O)c1C(CC(O)c1ccc(-c2ccc(Br)cc2)cc1)c1ccccc1 (stereo not shown) [bromadiolone] | insoluble or weakly soluble in water
2 | O=c1oc2ccccc2c(O)c1C1CC(c2ccc(-c3ccc(Br)cc3)cc2)Cc2ccccc21 (stereo not shown) [Brodifacoum, brodifacoum] | insoluble or weakly soluble in water
3 | O=c1sc2ccccc2c(O)c1C1CC(c2ccc(-c3ccc(Br)cc3)cc2)Cc2ccccc21 (stereo not shown) [difethialone] | insoluble or weakly soluble in water
4 | O=c1oc2ccccc2c(O)c1C1CC(c2ccc(OCc3ccc(C(F)(F)F)cc3)cc2)Cc2ccccc21 (stereo not shown) [flocoumafen] | insoluble or weakly soluble in water
